9 compounds from ChEMBL document CHEMBL1201862, “PubChem BioAssay data set” (2004) can be followed below.

Activity calls are given as the source filed them.

Data set [1] has as its system Vero. The data set can be described thus: cells. To be noted: Chlorocebus sabaeus. The format is functional.
Data set [2] deals with Vero. The data set can be described thus: cells. In kind it is functional, cell-based. As to conditions: Chlorocebus sabaeus.
Data set [3] is described as follows: microbe, parasite or virus in culture. As to conditions: Mycobacterium tuberculosis. The format is functional.
For the next data set, the system named is Jurkat. Nature of the data set: antigen receptor-induced NF-kB inhibitors, dose response, Jurkat, luciferase reporter, luminescence, B- and T-cell (AID 489004).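 Also: NF-kB luciferase reporter Jurkat cells stimulated with PMA plus ionomycin.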 As to conditions: Homo sapiens. In kind it is functional, cell-based. (Reporter assays use an easily measured gene product as a stand-in for the process of interest.)
Data set [4] in a line: cytotoxicity in HEK-293T NF-kB-Luc cells, dose response, cytotoxicity control for B/T-cell NF-kB inhibitor project, cell-based, uHTS hits (AID 489019).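 Also: IC50 reflects cytotoxicity as loss of cell viability.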 In kind it is functional.
Data set [5] can be described thus: Luminescence Cell-Based Dose Retest to Confirm Inhibitors of Cancer Stem Cells. [Related pubchem assays (depositor defined):AID2717, AID2721]. The format is functional. As to conditions: Homo sapiens.
Data set [6] is described as follows: cytotoxicity in HMLE control line with eGFP shRNA, dose response, counter-screen for HMLE_sh_ECad selective toxicity project, cell-based, HMLE_sh_eGFP, luminescence (AID 463074).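 Also: HMLE human mammary epithelial cells expressing control shRNA against eGFP.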 The format is functional, Homo sapiens.
The target of the next data set is Cytochrome P450 2C19 (Homo sapiens, UniProt P33261). The data set can be described thus: Cytochrome panel assay with activity outcomes. Panel member name: p450-cyp2c19 Compounds with AC50 equal or less than 10 uM are considered active. In kind it is functional.
Chain of Cytochrome P450 2C19 (P33261 whole entry): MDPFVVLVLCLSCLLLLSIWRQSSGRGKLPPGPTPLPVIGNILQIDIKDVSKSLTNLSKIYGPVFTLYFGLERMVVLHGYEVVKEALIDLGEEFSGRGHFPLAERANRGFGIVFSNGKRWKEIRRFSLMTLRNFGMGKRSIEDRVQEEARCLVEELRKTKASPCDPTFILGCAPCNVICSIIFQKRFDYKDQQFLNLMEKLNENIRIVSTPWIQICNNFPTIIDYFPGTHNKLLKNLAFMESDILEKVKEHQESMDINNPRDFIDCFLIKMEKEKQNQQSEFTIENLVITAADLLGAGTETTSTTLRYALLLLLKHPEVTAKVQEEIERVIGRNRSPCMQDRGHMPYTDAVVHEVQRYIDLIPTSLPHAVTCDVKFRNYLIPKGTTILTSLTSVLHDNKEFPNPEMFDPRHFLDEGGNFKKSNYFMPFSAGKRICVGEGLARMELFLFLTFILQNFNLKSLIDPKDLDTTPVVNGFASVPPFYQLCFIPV
A further data set deals with Cytochrome P450 2D6 (Homo sapiens, UniProt P10635).
Chain of Cytochrome P450 2D6 (P10635 whole entry): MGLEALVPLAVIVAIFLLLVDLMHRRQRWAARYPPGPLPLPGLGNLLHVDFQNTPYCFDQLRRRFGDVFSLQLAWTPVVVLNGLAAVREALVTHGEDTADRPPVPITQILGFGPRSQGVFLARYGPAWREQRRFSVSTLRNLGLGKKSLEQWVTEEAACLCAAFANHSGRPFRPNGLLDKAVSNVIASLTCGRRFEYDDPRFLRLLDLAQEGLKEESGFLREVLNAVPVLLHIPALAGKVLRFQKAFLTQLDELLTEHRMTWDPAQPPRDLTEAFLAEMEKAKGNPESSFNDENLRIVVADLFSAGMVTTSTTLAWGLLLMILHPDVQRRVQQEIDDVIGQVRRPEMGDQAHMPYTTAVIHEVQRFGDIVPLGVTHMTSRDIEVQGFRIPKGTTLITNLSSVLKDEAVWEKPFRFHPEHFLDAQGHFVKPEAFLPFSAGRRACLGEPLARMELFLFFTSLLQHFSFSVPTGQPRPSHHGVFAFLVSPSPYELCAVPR
Another data set addresses Cytochrome P450 3A4 (Homo sapiens, UniProt P08684).
Data set [7] can be described thus: NIH-3T3 fibroblast cytotoxicity, dose response, cytotoxicity control, cell-based, fluorescence, Alamar Blue, secondary assay (AID 2327).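 Also: NIH-3T3 mouse fibroblasts cultured with fluconazole at 8 µg/mL.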 In kind it is functional.
The nature of data set [8]: C. albicans growth with fluconazole, confirmation, fluorescence, retest (AID 2467). In kind it is functional, cell-based.
Another data set concerns the target T1, Exodeoxyribonuclease V (Escherichia coli (strain K12), UniProt P04993+P07648+P08394).
T1 sequence (P04993 whole entry): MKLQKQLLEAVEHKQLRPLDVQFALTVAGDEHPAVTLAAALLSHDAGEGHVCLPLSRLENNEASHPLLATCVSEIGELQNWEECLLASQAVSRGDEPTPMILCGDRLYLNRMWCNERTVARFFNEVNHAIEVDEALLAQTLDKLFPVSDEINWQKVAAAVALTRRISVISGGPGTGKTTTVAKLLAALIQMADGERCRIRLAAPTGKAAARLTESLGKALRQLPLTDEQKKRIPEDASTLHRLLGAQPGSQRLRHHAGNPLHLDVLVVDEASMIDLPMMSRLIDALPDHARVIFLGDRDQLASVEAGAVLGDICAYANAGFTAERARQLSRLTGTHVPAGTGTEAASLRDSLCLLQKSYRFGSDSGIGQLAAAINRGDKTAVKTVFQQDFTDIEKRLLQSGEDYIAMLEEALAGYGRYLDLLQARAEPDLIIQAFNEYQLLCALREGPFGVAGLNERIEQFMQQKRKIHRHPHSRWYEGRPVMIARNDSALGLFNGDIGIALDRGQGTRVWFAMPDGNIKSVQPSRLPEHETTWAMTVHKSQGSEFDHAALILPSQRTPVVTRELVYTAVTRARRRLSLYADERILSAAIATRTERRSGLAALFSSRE
T1 sequence (P07648 whole entry): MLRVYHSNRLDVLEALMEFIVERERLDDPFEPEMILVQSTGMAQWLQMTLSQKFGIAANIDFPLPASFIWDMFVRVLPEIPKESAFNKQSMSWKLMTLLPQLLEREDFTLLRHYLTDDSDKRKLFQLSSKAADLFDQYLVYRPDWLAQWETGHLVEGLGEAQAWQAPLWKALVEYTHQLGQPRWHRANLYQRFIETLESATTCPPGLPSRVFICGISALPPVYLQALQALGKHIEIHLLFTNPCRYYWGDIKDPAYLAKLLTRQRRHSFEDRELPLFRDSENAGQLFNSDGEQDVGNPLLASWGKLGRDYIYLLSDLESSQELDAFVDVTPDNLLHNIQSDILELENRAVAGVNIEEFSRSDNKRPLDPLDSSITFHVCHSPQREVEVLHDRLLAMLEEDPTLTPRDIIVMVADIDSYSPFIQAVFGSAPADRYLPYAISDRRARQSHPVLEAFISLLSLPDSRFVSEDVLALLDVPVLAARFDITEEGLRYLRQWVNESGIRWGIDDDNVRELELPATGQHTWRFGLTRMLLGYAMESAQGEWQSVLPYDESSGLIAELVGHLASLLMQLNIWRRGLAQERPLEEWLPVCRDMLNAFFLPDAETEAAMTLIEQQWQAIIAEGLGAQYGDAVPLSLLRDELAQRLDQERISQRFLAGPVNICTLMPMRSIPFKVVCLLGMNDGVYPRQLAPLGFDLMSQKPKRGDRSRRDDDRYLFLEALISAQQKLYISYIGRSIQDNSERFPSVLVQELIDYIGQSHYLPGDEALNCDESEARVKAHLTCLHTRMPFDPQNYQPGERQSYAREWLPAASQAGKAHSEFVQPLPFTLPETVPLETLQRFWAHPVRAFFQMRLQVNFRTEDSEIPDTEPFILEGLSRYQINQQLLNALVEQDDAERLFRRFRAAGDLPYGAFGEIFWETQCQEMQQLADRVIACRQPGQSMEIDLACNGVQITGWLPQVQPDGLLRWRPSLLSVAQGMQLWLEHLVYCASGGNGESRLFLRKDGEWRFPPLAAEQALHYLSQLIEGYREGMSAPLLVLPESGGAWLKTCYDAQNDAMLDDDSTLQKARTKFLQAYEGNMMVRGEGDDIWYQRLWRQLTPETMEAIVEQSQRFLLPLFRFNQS
T1 sequence (P08394 whole entry): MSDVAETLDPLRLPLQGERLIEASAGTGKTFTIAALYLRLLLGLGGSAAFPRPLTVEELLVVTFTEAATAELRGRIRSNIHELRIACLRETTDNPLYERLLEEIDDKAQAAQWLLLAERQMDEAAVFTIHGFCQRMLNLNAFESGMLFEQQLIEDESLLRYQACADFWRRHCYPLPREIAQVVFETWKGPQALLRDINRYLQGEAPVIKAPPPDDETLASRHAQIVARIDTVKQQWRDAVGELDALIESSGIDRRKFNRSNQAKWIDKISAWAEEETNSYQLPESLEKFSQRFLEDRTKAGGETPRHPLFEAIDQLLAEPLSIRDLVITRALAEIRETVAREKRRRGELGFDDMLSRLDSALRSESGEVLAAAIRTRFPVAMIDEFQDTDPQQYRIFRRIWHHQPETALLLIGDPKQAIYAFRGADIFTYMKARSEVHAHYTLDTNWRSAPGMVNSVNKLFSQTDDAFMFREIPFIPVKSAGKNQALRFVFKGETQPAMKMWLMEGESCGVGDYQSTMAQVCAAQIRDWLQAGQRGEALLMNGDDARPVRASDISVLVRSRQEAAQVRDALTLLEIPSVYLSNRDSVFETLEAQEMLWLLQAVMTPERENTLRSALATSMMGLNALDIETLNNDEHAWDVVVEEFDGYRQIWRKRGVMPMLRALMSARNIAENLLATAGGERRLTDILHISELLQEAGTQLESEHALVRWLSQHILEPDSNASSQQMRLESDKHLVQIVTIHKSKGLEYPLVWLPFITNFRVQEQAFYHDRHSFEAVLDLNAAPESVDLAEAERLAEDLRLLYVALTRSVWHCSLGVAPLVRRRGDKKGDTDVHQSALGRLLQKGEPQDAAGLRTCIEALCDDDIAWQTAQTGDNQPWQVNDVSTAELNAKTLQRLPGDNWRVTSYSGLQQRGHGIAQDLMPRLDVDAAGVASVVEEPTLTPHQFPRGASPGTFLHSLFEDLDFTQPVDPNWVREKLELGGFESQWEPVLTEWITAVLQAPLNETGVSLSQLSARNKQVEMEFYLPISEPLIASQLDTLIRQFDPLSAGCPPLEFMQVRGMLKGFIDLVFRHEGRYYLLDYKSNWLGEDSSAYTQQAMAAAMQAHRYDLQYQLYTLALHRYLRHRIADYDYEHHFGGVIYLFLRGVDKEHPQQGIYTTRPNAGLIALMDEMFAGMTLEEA
Nature of the data set: E. coli RecBCD inhibitors, dose response, counter-screen for AddAB inhibitor project, absorbance, V66 E. coli, mutant T4 phage (AID 492957). The format is functional, cell-based, Escherichia coli str. K-12 substr. MG1655. (In general: Counterscreens check selectivity or assay interference.)

The nature of data set [9]: Counterscreen for AddAB inhibitors: absorbance-based bacterial cell-based high throughput dose response assay for inhibitors of bacterial viability. [Related pubchem assays (depositor defined):AID435030, AID449728, AID449731, AID488942, AID488955, AID488956]. In kind it is functional.
For data set [10], the target named is T2, RNA-binding protein pos-1 (Caenorhabditis elegans, UniProt G5EF15).
T2 sequence (G5EF15 whole entry): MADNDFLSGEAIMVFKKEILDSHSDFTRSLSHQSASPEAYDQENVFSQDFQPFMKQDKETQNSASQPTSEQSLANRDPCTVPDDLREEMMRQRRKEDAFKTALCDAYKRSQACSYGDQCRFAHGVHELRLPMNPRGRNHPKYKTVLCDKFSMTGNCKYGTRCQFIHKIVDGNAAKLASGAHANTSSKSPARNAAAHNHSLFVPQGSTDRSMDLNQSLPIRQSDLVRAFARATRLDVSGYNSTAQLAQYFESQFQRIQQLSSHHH
The data set can be described thus: inhibitors of POS-1/mex-3 RNA binding, dose response, biochemical, fluorescence polarization (AID 1964).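 Also: purified POS-1 fused to maltose binding protein made in E. coli; potency of compounds blocking POS-1 binding to fluorescent RNA.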

For data set [11], the target named is T3, Zinc finger protein mex-5 (Caenorhabditis elegans, UniProt Q9XUB2).
T3 sequence (Q9XUB2 whole entry): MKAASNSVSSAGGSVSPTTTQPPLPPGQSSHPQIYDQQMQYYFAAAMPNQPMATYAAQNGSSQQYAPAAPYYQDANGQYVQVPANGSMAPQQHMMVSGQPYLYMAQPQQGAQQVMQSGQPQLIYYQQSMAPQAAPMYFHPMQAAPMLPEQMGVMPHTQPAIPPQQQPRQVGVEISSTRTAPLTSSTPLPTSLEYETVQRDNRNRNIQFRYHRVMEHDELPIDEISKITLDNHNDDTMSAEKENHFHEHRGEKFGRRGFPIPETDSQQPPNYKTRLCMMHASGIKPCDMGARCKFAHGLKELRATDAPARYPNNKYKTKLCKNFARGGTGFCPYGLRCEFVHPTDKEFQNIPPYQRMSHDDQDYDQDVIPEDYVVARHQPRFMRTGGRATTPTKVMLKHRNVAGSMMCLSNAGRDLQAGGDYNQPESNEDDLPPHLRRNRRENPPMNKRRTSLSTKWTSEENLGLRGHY
The data set can be described thus: MEX-5/TCR-2 RNA interaction inhibitors, dose response, biochemical, C. elegans, fluorescence polarization (AID 1960). For orientation: In fluorescence polarisation assays a small probe gives low polarisation when free and higher when bound to something large.

Chain of Cytochrome P450 3A4 (P08684 whole entry): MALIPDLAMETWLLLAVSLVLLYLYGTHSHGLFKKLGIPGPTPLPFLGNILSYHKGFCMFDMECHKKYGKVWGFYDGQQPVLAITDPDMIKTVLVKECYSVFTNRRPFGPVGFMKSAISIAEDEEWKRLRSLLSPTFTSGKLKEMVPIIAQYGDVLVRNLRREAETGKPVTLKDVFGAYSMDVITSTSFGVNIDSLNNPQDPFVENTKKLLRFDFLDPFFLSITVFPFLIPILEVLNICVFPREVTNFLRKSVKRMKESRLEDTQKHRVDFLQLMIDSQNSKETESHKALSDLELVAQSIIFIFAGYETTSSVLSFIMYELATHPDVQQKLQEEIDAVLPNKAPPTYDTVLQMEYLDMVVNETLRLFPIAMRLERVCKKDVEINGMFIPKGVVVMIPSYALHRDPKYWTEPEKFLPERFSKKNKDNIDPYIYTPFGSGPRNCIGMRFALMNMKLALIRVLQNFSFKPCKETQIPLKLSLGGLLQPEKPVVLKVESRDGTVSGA

Consider `COc1ccc(C(=O)C=Cc2ccc(OCc3ccccc3)c(OC)c2)cc1OC`, for which, in the data set with Vero [1], the CC50 was 20.9 µM (active).
What is called IC50 is the concentration needed to halve the response being measured. Turning to `CCN1CCN(C(=O)C2CCN(Cc3nc(-c4cccc(Cl)c4)oc3C)CC2)CC1`, in the data set with Vero [2], the IC50 is > 25 µM (active). Further, in the data set with Vero [1], the CC50 was > 25 µM (active).
As for `c1ccc2sc(Sc3ncnc4sccc34)nc2c1`, in data set [3], the CC50 was 32.9 µM (active). The figures for the IC50 (with Jurkat; in [4]) were 0.41 µM (active) and > 80 µM (inactive), respectively.
As usually defined, the AC50 is the midpoint of the concentration-response curve, whichever way the signal moves. `Cc1csc(NC(=O)c2ccc(COc3ccccc3)o2)n1`: the results for the AC50 in data set [5] and in data set [6] were 2.62 µM (active) and 32.2 µM (active), respectively.
On to `C[C@@H](O)CC(C)(C)N.Oc1c(Cl)c(Cl)c(Cl)c(Cl)c1Cl`, for which the AC50 result on Cytochrome P450 2C19 is “inactive”; at Cytochrome P450 2D6, “inactive”; on Cytochrome P450 3A4, “inconclusive”.
As for `ClCCn1cnc2c(SCc3ccccc3Cl)ncnc21`, the IC50 in the data set with Vero [2] is < 0.05 µM (active).
As to `CC(C)(CN)CN`, on Cytochrome P450 2D6, the AC50 entry was “inconclusive”.
A word on the EC50: it is the concentration that produces a half-maximal response. `O=C(NNC(=O)c1cc(-c2ccncc2)nc2ccccc12)c1ccccc1O`: the figures for the EC50 in data set [7] and in data set [8] were > 160 µM (inactive) and 3.18 µM (active), respectively. In addition, the IC50 (on Exodeoxyribonuclease V; in [9]) was > 119 µM (inactive) each time.
With `CC(=O)Oc1cc2cccc(OC(C)=O)c(=O)c2c(OC(C)=O)c1OC(C)=O`, the EC50 in [10] was 5.6 µM (active); in [11], 2.01 µM (active). The IC50 (on Exodeoxyribonuclease V; in [9]) was > 119 µM (inactive) each time.
